Data from US20230398130A1, “METHODS AND COMPOSITIONS FOR DIFFERENTIATING STEM CELLS” (Massachusetts Institute of Technology, priority 2020, published 2023).

What was measured:
[1] = tested on: ISC-enriched organoids; assay: Primary screen, 384-well 2.5-D organoid differentiation (ENR+CD, 6 days): carbachol-induced lysozyme secretion (LYZ.S); assay type: cell-based, murine; details: primary screen; for Dose.FC.LYZ.S (log 2 fold change): vs plate median; for Dose.FC.LYZ.S: FC vs plate median
Source text: (§1) High-throughput screening.

[2] = tested on: ISC-enriched organoids; assay: Primary screen, 384-well 2.5-D organoid differentiation (ENR+CD, 6 days, Target Selective Inhibitor Library, vs whole-plate median): ATP (CellTiter-Glo 3D, CTG); details: for Z.CTG (standard z score) / Dose.FC.CTG (log 2 fold change) / Dose.FC.CTG: primary screen; for Dose.FC.CTG (log 2 fold change): vs plate median; for Dose.FC.CTG: FC vs plate median; for Z.CTG: standard z score of FC
[3] = tested on: ISC-enriched organoids; assay: Primary screen, 384-well 2.5-D organoid differentiation (ENR+CD, 6 days): basal lysozyme secretion (LYZ.NS); assay type: cell-based, murine; details: for Z.LYZ.NS (standard z score) / Dose.FC.LYZ.NS (log 2 fold change) / Dose.FC.LYZ.NS: primary screen; for Dose.FC.LYZ.NS (log 2 fold change): vs plate median; for Dose.FC.LYZ.NS: FC vs plate median; for Z.LYZ.NS: standard z score of FC
Source text: as §1

Structure (SMILES) | Dose.FC.LYZ.S (log 2 fold change) ([1]; Dose 0.08 uM) | Dose.FC.LYZ.S (log 2 fold change) ([1]; Dose 0.40 uM) | Dose.FC.LYZ.S (log 2 fold change) ([1]; Dose 2.00 uM) | Dose.FC.LYZ.S (log 2 fold change) ([1]; Dose 10.00 uM) | Z.CTG (standard z score) ([2]; Dose 0.08 uM) | Dose.FC.CTG (log 2 fold change) ([2]; Dose 0.08 uM) | Z.CTG (standard z score) ([2]; Dose 0.40 uM) | Dose.FC.CTG (log 2 fold change) ([2]; Dose 0.40 uM) | Z.CTG (standard z score) ([2]; Dose 2.00 uM) | Dose.FC.CTG (log 2 fold change) ([2]; Dose 2.00 uM) | Z.CTG (standard z score) ([2]; Dose 10.00 uM) | Dose.FC.CTG (log 2 fold change) ([2]; Dose 10.00 uM) | Z.LYZ.NS (standard z score) ([3]; Dose 0.08 uM) | Dose.FC.LYZ.NS (log 2 fold change) ([3]; Dose 0.08 uM) | Z.LYZ.NS (standard z score) ([3]; Dose 0.40 uM) | Dose.FC.LYZ.NS (log 2 fold change) ([3]; Dose 0.40 uM) | Z.LYZ.NS (standard z score) ([3]; Dose 2.00 uM) | Dose.FC.LYZ.NS (log 2 fold change) ([3]; Dose 2.00 uM) | Z.LYZ.NS (standard z score) ([3]; Dose 10.00 uM) | Dose.FC.LYZ.NS (log 2 fold change) ([3]; Dose 10.00 uM) | other results
Cl.NC(=O)c1cnc(N[C@@H]2CCCC[C@@H]2N)nc1Nc1cccc(-n2nccn2)c1 [PRT062607 (P505-15, BIIB057) HCl] | −0.033 | 0.122 | −0.123 | −0.298 | −0.219 | −0.092 | 0.191 | 0.080 | −0.179 | −0.075 | −0.788 | −0.330 | 0.037 | 0.004 | 0.194 | 0.022 | −0.280 | −0.032 | −1.837 | −0.211 | –
COc1cc(Br)c(Nc2nc(-c3c(C)nc4ncccn34)cs2)c(Br)c1 [PTC-209] | 0.007 | 0.045 | −0.289 | −0.300 | −0.259 | −0.108 | −0.495 | −0.207 | −3.397 | −1.422 | −3.708 | −1.553 | 0.294 | 0.034 | −0.509 | −0.058 | −1.753 | −0.201 | −1.975 | −0.227 | –
CCOC(=O)c1ccc(N2NC(=O)/C(=C/c3ccc([N+](=O)[O-])o3)C2=O)cc1 [PYR-41] | 0.193 | 0.076 | 0.049 | 0.129 | 0.609 | 0.255 | 0.762 | 0.319 | 0.385 | 0.161 | 0.229 | 0.096 | 1.305 | 0.150 | 0.777 | 0.089 | 0.568 | 0.065 | 0.861 | 0.099 | –
C1=N/C2=N/c3ccc(OCCN4CCCC4)c(c3)COC/C=C/COCc3cccc(c3)C(=C1)N2 [Pacritinib (SB1518)] | – | – | – | – | – | – | – | – | – | – | – | – | – | – | – | – | – | – | – | – | Dose.FC.LYZ.S ([1]; Dose 0.08 uM): 0.066 log 2 fold change; Dose.FC.LYZ.S ([1]; Dose 0.40 uM): −0.032 log 2 fold change; Dose.FC.LYZ.S ([1]; Dose 2.00 uM): −0.304 log 2 fold change; Dose.FC.LYZ.S ([1]; Dose 10.00 uM): −0.419 log 2 fold change; Dose.FC.CTG ([2]; Dose 0.08 uM): −0.006 log 2 fold change; Z.CTG ([2]; Dose 0.08 uM): −0.014; Dose.FC.CTG ([2]; Dose 0.40 uM): 0.099 log 2 fold change; Z.CTG ([2]; Dose 0.40 uM): 0.236; Dose.FC.CTG ([2]; Dose 2.00 uM): −0.235 log 2 fold change; Z.CTG ([2]; Dose 2.00 uM): −0.560; Dose.FC.CTG ([2]; Dose 10.00 uM): −1.276 log 2 fold change; Z.CTG ([2]; Dose 10.00 uM): −3.047; Dose.FC.LYZ.NS ([3]; Dose 0.08 uM): 0.091 log 2 fold change; Z.LYZ.NS ([3]; Dose 0.08 uM): 0.795; Dose.FC.LYZ.NS ([3]; Dose 0.40 uM): −0.034 log 2 fold change; Z.LYZ.NS ([3]; Dose 0.40 uM): −0.299; Dose.FC.LYZ.NS ([3]; Dose 2.00 uM): −0.219 log 2 fold change; Z.LYZ.NS ([3]; Dose 2.00 uM): −1.908; Dose.FC.LYZ.NS ([3]; Dose 10.00 uM): −0.275 log 2 fold change; Z.LYZ.NS ([3]; Dose 10.00 uM): −2.391
CC(=O)c1c(C)c2cnc(Nc3ccc(N4CCNCC4)cn3)nc2n(C2CCCC2)c1=O.Cl [Palbociclib (PD-0332991) HCl] | – | – | – | – | – | – | – | – | – | – | – | – | – | – | – | – | – | – | – | – | Dose.FC.LYZ.S ([1]; Dose 0.08 uM): 0.004 log 2 fold change; Dose.FC.LYZ.S ([1]; Dose 0.40 uM): −0.042 log 2 fold change; Dose.FC.LYZ.S ([1]; Dose 2.00 uM): −0.122 log 2 fold change; Dose.FC.LYZ.S ([1]; Dose 10.00 uM): −0.203 log 2 fold change; Dose.FC.CTG ([2]; Dose 0.08 uM): 0.169 log 2 fold change; Z.CTG ([2]; Dose 0.08 uM): 0.404; Dose.FC.CTG ([2]; Dose 0.40 uM): −0.350 log 2 fold change; Z.CTG ([2]; Dose 0.40 uM): −0.836; Dose.FC.CTG ([2]; Dose 2.00 uM): −0.083 log 2 fold change; Z.CTG ([2]; Dose 2.00 uM): −0.199; Dose.FC.CTG ([2]; Dose 10.00 uM): −0.677 log 2 fold change; Z.CTG ([2]; Dose 10.00 uM): −1.617; Dose.FC.LYZ.NS ([3]; Dose 0.08 uM): −0.006 log 2 fold change; Z.LYZ.NS ([3]; Dose 0.08 uM): −0.055; Dose.FC.LYZ.NS ([3]; Dose 0.40 uM): −0.029 log 2 fold change; Z.LYZ.NS ([3]; Dose 0.40 uM): −0.248; Dose.FC.LYZ.NS ([3]; Dose 2.00 uM): −0.051 log 2 fold change; Z.LYZ.NS ([3]; Dose 2.00 uM): −0.440; Dose.FC.LYZ.NS ([3]; Dose 10.00 uM): −0.132 log 2 fold change; Z.LYZ.NS ([3]; Dose 10.00 uM): −1.150
